Laboratory results published in US20180256489A1, “NATURAL FORMULATIONS” (priority 2010, published 2018).

Legend:
[1] = test system: erythrocytes of sheep blood; assay: Haemolysis test (model for eye irritation); assay type: cell-based; conditions: 50% haemolysis, 30 minutes in ice, 540 nm
Experimental: Haemolysis test (which serves as a model for eye irritation) was conducted in order to determine the safety of the products of the invention in comparison to the commercial surfactant SLES (sodium lauryl ether sulfate).
Preparation of the erythrocyte suspension: erythrocytes of sheep blood were separated by centrifugation at 1250g, for 15 minutes at room temperature, washed three times with phosphate-buffered saline solution (PBS, pH 7.4), and centrifuged twice under the same condition. The blood volume was completed with PBS. This suspension was maintained at 4° C. for up to three days.
The assay procedure: 20 μl of each sample were diluted up to 2 ml of the suspension, and were incubated with for 30 minutes in ice. The incubation was terminated by a rapid, high-speed (1800 g) centrifugation for 30 minutes. The extent of haemolysis was determined in spectrophotometrically at 540 nm against a blank (PBS). The extent of haemolysis, expressed as a percentage, was calculated as the absorbance of an erythrocyte suspension incubated with each product, relative to that of a completely haemolysed control (100%, at distilled water) at 540 nm. The Hm50 (50% haemolysis) was determined from concentration—response curves.

[2] = Foaming by shaking in a covered glass cylinder; assay type: physicochemical; conditions: Table 5; 1 wt % calculated saponins in distilled water
Experimental: (§1) Foaming properties of a solution of 1 wt % of the extract of the invention in water were measured by shaking 10 ml of the solution five times in a 100 ml covered glass cylinder. The volume of the generated foam was measured. Another method for measuring the foaming was performed by Moulinex LM240 blender at a maximum speed of 10 seconds for 80 ml solution. The generated foam was transferred to glass cylinder and measured. The same procedure was repeated with extracts obtained by various ethanol/water mixtures. Foaming—solution of 1 wt % of the extract in water was shaken five times in a glass cylinder as described above. The volume of the generated foam was measured. Another method for measuring the foaming was performed by Moulinex LM240 blender at a maximum speed of 10 seconds for 80 ml solution and measured in a glass cylinder, and the foaming results are detailed in Table 4 below.

[3] = Foaming by Moulinex LM240 blender; assay type: physicochemical; conditions: Table 5; 1 wt % calculated saponins in distilled water
Experimental: as §1

Row | Substance | HM50 [1] | Foam volume by shaking [2] | Foam volume by blender [3]
1 | sodium lauryl ether sulfate [SLES] | 0.001 gram/100 ml | – | –
2 | decyl glycoside [1 wt % Decyl glycoside] | – | 57 (±5) ml | 420 (±15) ml
